Assay results as given in patent US4335249A, “Herbicidal diphenyl ethers, sulfides, sulfoxides and sulfones” (Rohm and Haas Company, priority 1976, dated 1982).

Assays:
Format in all cases: in vivo
[1] = system: barnyardgrass (Echinochloa crusgalli); assay: Preemergence herbicidal activity, barnyardgrass; settings: Echinochloa crus-galli, pre-emergence, 336 h, Pre; for pest or weed control at 2241.7 g/ha: 2 lb/A
Method: (§1) Using the procedure described below, compounds of the invention are evaluated for control of several of the following plant species:
(§2) The following est procedure is employed. Seeds of selected crops and weeds are planted in soil in flats. For preemergence tests, the flats are treated with the test compound immediately after the planting. For postemergence tests, the seeds are allowed to germinate, and after two weeks the flats are treated with the test compound. The compound to be evaluated is dissolved in acetone, diluted with water, and sprayed over the flats using a carrier volume equivalent to 50 gallons per acre at the rate of application (pounds per acre, lb/A.) specified in the tables.

[2] = system: foxtail (Setaria spp.); assay: Preemergence herbicidal activity, foxtail; settings: Setaria, pre-emergence, 336 h, Pre; for pest or weed control at 2241.7 g/ha: 2 lb/A
Method: as §1
as §2, with “tables. About two weeks after the application of the test compound, the state of growth of the plants is observed and the phytotoxic effect of the compound is evaluated. Tables III and IV give the average percent control achieved by test compounds in terms of the percent of the plants which are killed by the compounds.” for “tables.”

[3] = system: velvetleaf (Abutilon theophrasti); assay: Preemergence herbicidal activity, velvetleaf; settings: Abutilon theophrasti, pre-emergence, 336 h, Pre; for pest or weed control at 2241.7 g/ha: 2 lb/A
Method: as §1
as §2, with “tables. About two weeks after the application of the test compound, the state of growth of the plants is observed and the phytotoxic effect of the compound is evaluated. Tables III and IV give the average percent control achieved by test compounds in terms of the percent of the plants which are killed by the compounds.” for “tables.”

[4] = system: tomato (Lycopersicon esculentum); assay: Preemergence herbicidal activity, tomato; settings: Solanum lycopersicum, pre-emergence, 336 h, Pre; for pest or weed control at 2241.7 g/ha: 2 lb/A
Method: as §1
as §2, with “tables. About two weeks after the application of the test compound, the state of growth of the plants is observed and the phytotoxic effect of the compound is evaluated. Tables III and IV give the average percent control achieved by test compounds in terms of the percent of the plants which are killed by the compounds.” for “tables.”

[5] = system: cocklebur (Xanthium pensylvanicum); assay: Postemergence herbicidal activity, cocklebur; settings: Xanthium strumarium, post-emergence, 336 h; for pest or weed control at 2241.7 g/ha: 2 lb/A
Method: as §1
as §2, with “tables. About two weeks after the application of the test compound, the state of growth of the plants is observed and the phytotoxic effect of the compound is evaluated. Tables III and IV give the average percent control achieved by test compounds in terms of the percent of the plants which are killed by the compounds.” for “tables.”

[6] = system: downybrome (Bromus tectorum); assay: Postemergence herbicidal activity, downybrome; settings: Bromus tectorum, post-emergence, 336 h, Post; for pest or weed control at 2241.7 g/ha: 2 lb/A
Method: as §1
as §2, with “tables. About two weeks after the application of the test compound, the state of growth of the plants is observed and the phytotoxic effect of the compound is evaluated. Tables III and IV give the average percent control achieved by test compounds in terms of the percent of the plants which are killed by the compounds.” for “tables.”

[7] = system: marigold (Tagetes spp.); assay: Preemergence herbicidal activity, marigold; settings: pre-emergence, 336 h; for pest or weed control at 2241.7 g/ha: 2 lb/A
Method: as §1
as §2, with “tables. About two weeks after the application of the test compound, the state of growth of the plants is observed and the phytotoxic effect of the compound is evaluated. Tables III and IV give the average percent control achieved by test compounds in terms of the percent of the plants which are killed by the compounds.” for “tables.”

[8] = system: foxtail (Setaria spp.); assay: Postemergence herbicidal activity, foxtail; settings: Setaria, post-emergence, 336 h, Post; for pest or weed control at 2241.7 g/ha: 2 lb/A
Method: as §1
as §2, with “tables. About two weeks after the application of the test compound, the state of growth of the plants is observed and the phytotoxic effect of the compound is evaluated. Tables III and IV give the average percent control achieved by test compounds in terms of the percent of the plants which are killed by the compounds.” for “tables.”

[9] = system: yellow nutsedge (Cyperus esculentus); assay: Preemergence herbicidal activity, yellow nutsedge; settings: Cyperus, pre-emergence, 336 h; for pest or weed control at 2241.7 g/ha: 2 lb/A
Method: as §1
as §2, with “tables. About two weeks after the application of the test compound, the state of growth of the plants is observed and the phytotoxic effect of the compound is evaluated. Tables III and IV give the average percent control achieved by test compounds in terms of the percent of the plants which are killed by the compounds.” for “tables.”

[10] = system: downybrome (Bromus tectorum); assay: Preemergence herbicidal activity, downybrome; settings: Bromus tectorum, pre-emergence, 336 h, Pre; for pest or weed control at 2241.7 g/ha: 2 lb/A
Method: as §1
as §2, with “tables. About two weeks after the application of the test compound, the state of growth of the plants is observed and the phytotoxic effect of the compound is evaluated. Tables III and IV give the average percent control achieved by test compounds in terms of the percent of the plants which are killed by the compounds.” for “tables.”

[11] = system: tomato (Lycopersicon esculentum); assay: Postemergence herbicidal activity, tomato; settings: Solanum lycopersicum, post-emergence, 336 h, Post; for pest or weed control at 2241.7 g/ha: 2 lb/A
Method: as §1
as §2, with “tables. About two weeks after the application of the test compound, the state of growth of the plants is observed and the phytotoxic effect of the compound is evaluated. Tables III and IV give the average percent control achieved by test compounds in terms of the percent of the plants which are killed by the compounds.” for “tables.”

[12] = system: morningglory (Ipomoca spp.); assay: Preemergence herbicidal activity, morningglory; settings: Ipomoea, pre-emergence, 336 h; for pest or weed control at 2241.7 g/ha: 2 lb/A
Method: as §1
as §2, with “tables. About two weeks after the application of the test compound, the state of growth of the plants is observed and the phytotoxic effect of the compound is evaluated. Tables III and IV give the average percent control achieved by test compounds in terms of the percent of the plants which are killed by the compounds.” for “tables.”

[13] = system: velvetleaf (Abutilon theophrasti); assay: Postemergence herbicidal activity, velvetleaf; settings: Abutilon theophrasti, post-emergence, 336 h; for pest or weed control at 2241.7 g/ha: 2 lb/A
Method: as §1, §2

[14] = system: wild oats (Avena fatua); assay: Postemergence herbicidal activity, wild oats; settings: Avena fatua, post-emergence, 336 h, Post, read-out: % control, Wild oat; for pest or weed control at 2241.7 g/ha: 2 lb/A
Method: as §1
as §2, with “tables. About two weeks after the application of the test compound, the state of growth of the plants is observed and the phytotoxic effect of the compound is evaluated. Tables III and IV give the average percent control achieved by test compounds in terms of the percent of the plants which are killed by the compounds.” for “tables.”

[15] = system: yellow nutsedge (Cyperus esculentus); assay: Postemergence herbicidal activity, yellow nutsedge; settings: Cyperus, post-emergence, 336 h; for pest or weed control at 2241.7 g/ha: 2 lb/A
Method: as §1
as §2, with “tables. About two weeks after the application of the test compound, the state of growth of the plants is observed and the phytotoxic effect of the compound is evaluated. Tables III and IV give the average percent control achieved by test compounds in terms of the percent of the plants which are killed by the compounds.” for “tables.”

[16] = system: morningglory (Ipomoca spp.); assay: Postemergence herbicidal activity, morningglory; settings: Ipomoea, post-emergence, 336 h; for pest or weed control at 2241.7 g/ha: 2 lb/A
Method: as §1
as §2, with “tables. About two weeks after the application of the test compound, the state of growth of the plants is observed and the phytotoxic effect of the compound is evaluated. Tables III and IV give the average percent control achieved by test compounds in terms of the percent of the plants which are killed by the compounds.” for “tables.”

[17] = system: wild oats (Avena fatua); assay: Preemergence herbicidal activity, wild oats; settings: Avena fatua, pre-emergence, 336 h, Pre, read-out: % control, Wild oat; for pest or weed control at 2241.7 g/ha: 2 lb/A
Method: as §1
as §2, with “tables. About two weeks after the application of the test compound, the state of growth of the plants is observed and the phytotoxic effect of the compound is evaluated. Tables III and IV give the average percent control achieved by test compounds in terms of the percent of the plants which are killed by the compounds.” for “tables.”

[18] = system: cocklebur (Xanthium pensylvanicum); assay: Preemergence herbicidal activity, cocklebur; settings: Xanthium strumarium, pre-emergence, 336 h; for pest or weed control at 2241.7 g/ha: 2 lb/A
Method: as §1
as §2, with “tables. About two weeks after the application of the test compound, the state of growth of the plants is observed and the phytotoxic effect of the compound is evaluated. Tables III and IV give the average percent control achieved by test compounds in terms of the percent of the plants which are killed by the compounds.” for “tables.”

[19] = system: barnyardgrass (Echinochloa crusgalli); assay: Postemergence herbicidal activity, barnyardgrass; settings: Echinochloa crus-galli, post-emergence, 336 h, Post; for pest or weed control at 2241.7 g/ha: 2 lb/A
Method: as §1, §2

[20] = system: marigold (Tagetes spp.); assay: Postemergence herbicidal activity, marigold; settings: post-emergence, 336 h; for pest or weed control at 2241.7 g/ha: 2 lb/A
Method: as §1
as §2, with “tables. About two weeks after the application of the test compound, the state of growth of the plants is observed and the phytotoxic effect of the compound is evaluated. Tables III and IV give the average percent control achieved by test compounds in terms of the percent of the plants which are killed by the compounds.” for “tables.”

SMILES	pest or weed control at 2241.7 g/ha [1] [%]	pest or weed control at 2241.7 g/ha [2] [%]	pest or weed control at 2241.7 g/ha [3] [%]	pest or weed control at 2241.7 g/ha [4] [%]	pest or weed control at 2241.7 g/ha [5] [%]	pest or weed control at 2241.7 g/ha [6] [%]	pest or weed control at 2241.7 g/ha [7] [%]	pest or weed control at 2241.7 g/ha [8] [%]	pest or weed control at 2241.7 g/ha [9] [%]	pest or weed control at 2241.7 g/ha [10] [%]	pest or weed control at 2241.7 g/ha [11] [%]	pest or weed control at 2241.7 g/ha [12] [%]	pest or weed control at 2241.7 g/ha [13] [%]	pest or weed control at 2241.7 g/ha [14] [%]	pest or weed control at 2241.7 g/ha [15] [%]	pest or weed control at 2241.7 g/ha [16] [%]	pest or weed control at 2241.7 g/ha [17] [%]	pest or weed control at 2241.7 g/ha [18] [%]	pest or weed control at 2241.7 g/ha [19] [%]	pest or weed control at 2241.7 g/ha [20] [%]	further results
CCOC(=O)C(C)Oc1ccc([S+]([O-])c2cccc(C(F)(F)F)c2)cc1 (stereo not drawn) [Example 50]																					pest or weed control at 4483.4 g/ha ([1]; 4 lb/A): 0%; pest or weed control at 4483.4 g/ha ([2]; 4 lb/A): 0%; pest or weed control at 4483.4 g/ha ([3]; 4 lb/A): 0%; pest or weed control at 4483.4 g/ha ([4]; 4 lb/A): 0%; pest or weed control at 4483.4 g/ha ([5]; 4 lb/A): 0%; pest or weed control at 4483.4 g/ha ([6]; 4 lb/A): 0%; pest or weed control at 4483.4 g/ha ([7]; 4 lb/A): 0%; pest or weed control at 4483.4 g/ha ([8]; 4 lb/A): 0%; pest or weed control at 4483.4 g/ha ([9]; 4 lb/A): 0%; pest or weed control at 4483.4 g/ha ([10]; 4 lb/A): 0%; pest or weed control at 4483.4 g/ha ([11]; 4 lb/A): 20%; pest or weed control at 4483.4 g/ha ([12]; 4 lb/A): 0%; pest or weed control at 4483.4 g/ha ([13]; 4 lb/A): 0%; pest or weed control at 4483.4 g/ha ([14]; 4 lb/A): 20%; pest or weed control at 4483.4 g/ha ([15]; 4 lb/A): 0%; pest or weed control at 4483.4 g/ha ([16]; 4 lb/A): 0%; pest or weed control at 4483.4 g/ha ([17]; 4 lb/A): 0%; pest or weed control at 4483.4 g/ha ([18]; 4 lb/A): 0%; pest or weed control at 4483.4 g/ha ([19]; 4 lb/A): 20%; pest or weed control at 4483.4 g/ha ([20]; 4 lb/A): 0%
CCOC(=O)C(C)Oc1ccc(Oc2ccc(C(F)(F)F)cc2)cc1 (stereo not drawn) [Example 27]	100	100	0	0	70	100	0	100	0	99	60	0	40	100	0	95	99	0	100	100	
CCC(C)OC(=O)C(C)Oc1ccc(Oc2ccc(C(F)(F)F)cc2Cl)cc1 (stereo not drawn) [Example 34]	100	100	0	0	0	99	0	100	0	95	0	0	0	100	0	0	80	0	100	0	
